From patent publication US8188139B2, “Heterocyclic-substituted phenyl methanones” (Hoffman-La Roche Inc., priority 2005, dated 2012)

Molecular target: T1, mGlyT-1b (Mus musculus, UniProt P28571)
T1 construct: host or cells: Flp-in-CHO
T1 sequence (P28571 1-651 isoform P28571-2): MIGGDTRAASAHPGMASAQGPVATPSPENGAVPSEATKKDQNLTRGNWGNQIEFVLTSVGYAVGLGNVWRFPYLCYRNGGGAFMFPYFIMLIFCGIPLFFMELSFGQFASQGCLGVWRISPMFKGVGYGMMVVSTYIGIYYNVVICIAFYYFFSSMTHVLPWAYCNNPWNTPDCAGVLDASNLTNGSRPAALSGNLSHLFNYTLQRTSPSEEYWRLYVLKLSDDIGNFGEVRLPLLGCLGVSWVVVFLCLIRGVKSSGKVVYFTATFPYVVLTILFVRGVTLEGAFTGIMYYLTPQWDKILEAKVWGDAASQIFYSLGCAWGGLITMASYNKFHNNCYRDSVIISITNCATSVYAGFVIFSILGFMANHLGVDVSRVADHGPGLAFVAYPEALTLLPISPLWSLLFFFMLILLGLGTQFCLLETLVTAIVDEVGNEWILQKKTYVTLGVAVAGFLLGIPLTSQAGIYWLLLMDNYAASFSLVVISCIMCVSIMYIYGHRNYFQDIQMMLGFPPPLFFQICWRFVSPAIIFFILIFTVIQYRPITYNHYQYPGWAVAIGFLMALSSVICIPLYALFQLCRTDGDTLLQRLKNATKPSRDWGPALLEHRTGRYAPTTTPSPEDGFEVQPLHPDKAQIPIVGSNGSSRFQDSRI
Assay: Glycine uptake inhibition assay (mGlyT-1b)
Assay type: cell-based
Conditions: inhibition of [3H]-glycine uptake in Flp-in-CHO cells transfected with mGlyT-1b cDNA; 20 min preincubation at 22° C.; read-out: IC50 (μM) at GlyT-1
How it was run: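 Flp-in CHO cells stably expressing mouse GlyT-1b were preincubated with inhibitor (concentration range) for 20 min at 22° C. in pH 7.4 uptake buffer; nonspecific uptake defined with 10 mM glycine. [3H]-glycine 60 nM plus 25 μM unlabelled glycine was then added; cell-associated radioactivity counted by scintillation and IC50 derived.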

| IC50 [µM] | Compound |
| --- | --- |
| 0.02 | C[C@H](Oc1ccc(S(C)(=O)=O)cc1C(=O)N1Cc2ccc(-c3ccsc3)cc2C1)C(F)(F)F [Example 330, [5-Methanesulfonyl-2-(2,2,2-trifluoro-1-methyl-ethoxy)-phenyl]-(5-thiophen-3-yl-1,3-dihydro-isoindol-2-yl)-methanone] |
| 0.022 | Cc1csc(-c2ccc3c(c2)CN(C(=O)c2cc(S(C)(=O)=O)ccc2O[C@@H](C)C(F)(F)F)C3)c1 [Example 331, [5-Methanesulfonyl-2-(2,2,2-trifluoro-1-methyl-ethoxy)-phenyl]-[5-(4-methyl-thiophen-2-yl)-1,3-dihydro-isoindol-2-yl]-methanone] |
| 0.041 | Cc1ccsc1-c1ccc2c(c1)CN(C(=O)c1cc(S(C)(=O)=O)ccc1O[C@@H](C)C(F)(F)F)C2 [Example 332, [5-Methanesulfonyl-2-(2,2,2-trifluoro-1-methyl-ethoxy)-phenyl]-[5-(3-methyl-thiophen-2-yl)-1,3-dihydro-isoindol-2-yl]-methanone] |
| 0.047 | C[C@H](Oc1ccc(S(C)(=O)=O)cc1C(=O)N1Cc2ccc(-c3ccc(F)cc3)cc2C1)C(F)(F)F [Example 333, [5-(4-Fluoro-phenyl)-1,3-dihydro-isoindol-2-yl]-[5-methanesulfonyl-2-(2,2,2-trifluoro-1-methyl-ethoxy)-phenyl]-methanone] |
| 0.02 | C[C@H](Oc1ccc(S(C)(=O)=O)cc1C(=O)N1Cc2ccc(-c3cccc(F)c3)cc2C1)C(F)(F)F [Example 334, [5-(3-Fluoro-phenyl)-1,3-dihydro-isoindol-2-yl]-[5-methanesulfonyl-2-(2,2,2-trifluoro-1-methyl-ethoxy)-phenyl]-methanone] |
| 0.031 | C[C@H](Oc1ccc(S(C)(=O)=O)cc1C(=O)N1Cc2ccc(-c3ccccc3F)cc2C1)C(F)(F)F [Example 335, [5-(2-Fluoro-phenyl)-1,3-dihydro-isoindol-2-yl]-[5-methanesulfonyl-2-(2,2,2-trifluoro-1-methyl-ethoxy)-phenyl]-methanone] |
| 0.022 | C[C@H](Oc1ccc(S(C)(=O)=O)cc1C(=O)N1Cc2ccc(-c3cc(F)cc(F)c3)cc2C1)C(F)(F)F [Example 337] |
| 0.025 | COc1cccc(-c2ccc3c(c2)CN(C(=O)c2cc(S(C)(=O)=O)ccc2O[C@@H](C)C(F)(F)F)C3)c1 [Example 340, [5-Methanesulfonyl-2-(2,2,2-trifluoro-1-methyl-ethoxy)-phenyl]-[5-(3-methoxy-phenyl)-1,3-dihydro-isoindol-2-yl]-methanone] |
| 0.02 | C[C@H](Oc1ccc(S(C)(=O)=O)cc1C(=O)N1Cc2ccc(-c3cccs3)cc2C1)C(F)(F)F [Example 344] |
| 0.034 | Cc1cscc1-c1ccc2c(c1)CN(C(=O)c1cc(S(C)(=O)=O)ccc1O[C@@H](C)C(F)(F)F)C2 [Example 345] |
| 0.043 | C[C@H](Oc1ccc(S(C)(=O)=O)cc1C(=O)N1Cc2ccc(-n3cccn3)cc2C1)C(F)(F)F [Example 347] |
| 0.013 | C[C@H](Oc1ccc(S(C)(=O)=O)cc1C(=O)N1Cc2cnc(N3CCOCC3)cc2C1)C(F)(F)F [Example 356, [5-Methanesulfonyl-2-((S)-2,2,2-trifluoro-1-methyl-ethoxy)-phenyl]-(6-morpholin-4-yl-1,3-dihydro-pyrrolo[3,4-c]pyridin-2-yl)-methanone] |
| 0.03 | C[C@H](Oc1ccc(S(C)(=O)=O)cc1C(=O)N1Cc2ccc(OCC(F)(F)F)cc2C1)C(F)(F)F [Example 357, [5-Methanesulfonyl-2-((S)-2,2,2-trifluoro-1-methyl-ethoxy)-phenyl]-[5-(2,2,2-trifluoro-ethoxy)-1,3-dihydro-isoindol-2-yl]-methanone] |

| Compound | IC50 [µM] |
| --- | --- |
| CS(=O)(=O)c1ccc(OCC(F)(F)C(F)(F)F)c(C(=O)N2Cc3cc(Cl)c(N4C5CCC4COC5)cc3C2)c1 [Example 363, [5-Chloro-6-(3-oxa-8-aza-bicyclo[3.2.1]oct-8-yl)-1,3-dihydro-isoindol-2-yl]-[5-methanesulfonyl-2-(2,2,3,3,3-pentafluoro-propoxy)-phenyl]-methanone] | 0.004 |
